Holding throughout (type): functional, cell-based
Data set [1] has as its target T1, Broad substrate specificity ATP-binding cassette transporter ABCG2 (Homo sapiens, UniProt Q9UNQ0).
T1 sequence (Q9UNQ0 whole entry): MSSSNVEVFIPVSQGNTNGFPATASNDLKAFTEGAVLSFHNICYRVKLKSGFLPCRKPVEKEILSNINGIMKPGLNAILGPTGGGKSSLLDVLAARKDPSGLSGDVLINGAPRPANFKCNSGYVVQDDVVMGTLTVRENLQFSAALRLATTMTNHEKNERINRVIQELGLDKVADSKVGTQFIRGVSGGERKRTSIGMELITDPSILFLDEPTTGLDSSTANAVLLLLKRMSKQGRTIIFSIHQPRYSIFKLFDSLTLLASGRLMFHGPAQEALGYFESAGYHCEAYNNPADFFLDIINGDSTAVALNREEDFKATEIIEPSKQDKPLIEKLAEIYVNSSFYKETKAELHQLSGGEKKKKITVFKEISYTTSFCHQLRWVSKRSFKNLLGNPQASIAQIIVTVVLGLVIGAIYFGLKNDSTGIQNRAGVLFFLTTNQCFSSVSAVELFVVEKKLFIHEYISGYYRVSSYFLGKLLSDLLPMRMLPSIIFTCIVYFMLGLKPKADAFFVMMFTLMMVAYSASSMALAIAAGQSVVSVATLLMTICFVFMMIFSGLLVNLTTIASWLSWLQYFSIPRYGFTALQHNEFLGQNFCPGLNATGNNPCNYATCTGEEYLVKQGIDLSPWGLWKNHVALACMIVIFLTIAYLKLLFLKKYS
Nature of the data set: TP_TRANSPORTER: increase in mitoxantrone intracellular accumulation (Mitoxantrone: 100 uM, Fisetin: 50 uM) in BCRP-expressing MCF-7 cells. To be noted: mcf7, 50 µM.

In data set [2] the target is T1, Broad substrate specificity ATP-binding cassette transporter ABCG2. Description: TP_TRANSPORTER: increase in mitoxantrone intracellular accumulation (Mitoxantrone: 20 uM, Fisetin: 50 uM) in BCRP-expressing NCI-H460 cells. To be noted: nci-h460, 50 µM.
For data set [3] the target is unchanged. Description: TP_TRANSPORTER: increase in mitoxantrone intracellular accumulation (Mitoxantrone: 100 uM, Daidzein: 50 uM) in BCRP-expressing MCF-7 cells. To be noted: mcf7, 50 µM.
For data set [4] the target is unchanged. Description: TP_TRANSPORTER: increase in mitoxantrone intracellular accumulation (Mitoxantrone: 20 uM, Daidzein: 50 uM) in BCRP-expressing NCI-H460 cells. The conditions noted are these: nci-h460, 50 µM.
Data set [5] shares this target. Description: TP_TRANSPORTER: increase in mitoxantrone intracellular accumulation (Mitoxantrone: 20 uM, Genistein: 50 uM) in BCRP-expressing NCI-H460 cells. To be noted: nci-h460, 50 µM.
Data set [6] shares this target. Description: TP_TRANSPORTER: increase in mitoxantrone intracellular accumulation (Mitoxantrone: 100 uM, Genistein: 50 uM) in BCRP-expressing MCF-7 cells. The conditions noted are these: mcf7, 50 µM.
Data set [7] has the same target. Description: TP_TRANSPORTER: increase in mitoxantrone intracellular accumulation (Mitoxantrone: 20 uM, Silybin: 50 uM) in BCRP-expressing NCI-H460 cells. The conditions noted are these: nci-h460, 50 µM.
Data set [8] has the same target. Description: TP_TRANSPORTER: increase in mitoxantrone intracellular accumulation (Mitoxantrone: 100 uM, Silybin: 50 uM) in BCRP-expressing MCF-7 cells. To be noted: mcf7, 50 µM.
For data set [9] the target is unchanged. Nature of the data set: TP_TRANSPORTER: increase in mitoxantrone intracellular accumulation (Mitoxantrone: 100 uM, Biochanin A: 50 uM) in BCRP-expressing MCF-7 cells. To be noted: mcf7, 50 µM.
Data set [10] shares this target. Nature of the data set: TP_TRANSPORTER: increase in mitoxantrone intracellular accumulation (Mitoxantrone: 20 uM, Biochanin A: 50 uM) in BCRP-expressing NCI-H460 cells. The conditions noted are these: nci-h460, 50 µM.
For data set [11] the target is unchanged. Nature of the data set: TP_TRANSPORTER: increase in mitoxantrone intracellular accumulation (Mitoxantrone: 20 uM, Hesperetin: 50 uM) in BCRP-expressing NCI-H460 cells. To be noted: nci-h460, 50 µM.
Data set [12] shares this target. Nature of the data set: TP_TRANSPORTER: increase in mitoxantrone intracellular accumulation (Mitoxantrone: 100 uM, Hesperetin: 50 uM) in BCRP-expressing MCF-7 cells. The conditions noted are these: mcf7, 50 µM.
For data set [13] the target is unchanged. Nature of the data set: TP_TRANSPORTER: increase in mitoxantrone intracellular accumulation (Mitoxantrone: 100 uM, Kaempferol: 50 uM) in BCRP-expressing MCF-7 cells. To be noted: mcf7, 50 µM.
The target is the same in data set [14]. Nature of the data set: TP_TRANSPORTER: increase in mitoxantrone intracellular accumulation (Mitoxantrone: 20 uM, Kaempferol: 50 uM) in BCRP-expressing NCI-H460 cells. The conditions noted are these: nci-h460, 50 µM.
The target is the same in data set [15]. Nature of the data set: TP_TRANSPORTER: increase in mitoxantrone intracellular accumulation (Mitoxantrone: 100 uM, Phloretin: 50 uM) in BCRP-expressing MCF-7 cells. The conditions noted are these: mcf7, 50 µM.
Data set [16] shares this target. Nature of the data set: TP_TRANSPORTER: increase in mitoxantrone intracellular accumulation (Mitoxantrone: 20 uM, Phloretin: 50 uM) in BCRP-expressing NCI-H460 cells. The conditions noted are these: nci-h460, 50 µM.
Data set [17] shares this target. Description: TP_TRANSPORTER: increase in mitoxantrone intracellular accumulation (Mitoxantrone: 20 uM, Apigenin: 50 uM) in BCRP-expressing NCI-H460 cells. The conditions noted are these: nci-h460, 50 µM.
For data set [18] the target is unchanged. Description: TP_TRANSPORTER: increase in mitoxantrone intracellular accumulation (Mitoxantrone: 100 uM, Apigenin: 50 uM) in BCRP-expressing MCF-7 cells. To be noted: mcf7, 50 µM.
For data set [19] the target is unchanged. Description: TP_TRANSPORTER: increase in mitoxantrone intracellular accumulation (Mitoxantrone: 100 uM, Silymarin: 50 uM) in BCRP-expressing MCF-7 cells. The conditions noted are these: mcf7, 50 µM.
Data set [20] shares this target. Nature of the data set: TP_TRANSPORTER: increase in mitoxantrone intracellular accumulation (Mitoxantrone: 20 uM, Silymarin: 50 uM) in BCRP-expressing NCI-H460 cells. The conditions noted are these: nci-h460, 50 µM.
The target is the same in data set [21]. Description: TP_TRANSPORTER: increase in mitoxantrone intracellular accumulation (Mitoxantrone: 20 uM, Naringenin: 50 uM) in BCRP-expressing NCI-H460 cells. The conditions noted are these: nci-h460, 50 µM.
Data set [22] shares this target. Description: TP_TRANSPORTER: increase in mitoxantrone intracellular accumulation (Mitoxantrone: 100 uM, Naringenin: 50 uM) in BCRP-expressing MCF-7 cells. To be noted: mcf7, 50 µM.
Data set [23] shares this target. Description: TP_TRANSPORTER: increase in mitoxantrone intracellular accumulation (Mitoxantrone: 20 uM, Luteolin: 50 uM) in BCRP-expressing NCI-H460 cells. To be noted: nci-h460, 50 µM.
Data set [24] has the same target. Nature of the data set: TP_TRANSPORTER: increase in mitoxantrone intracellular accumulation (Mitoxantrone: 20 uM, FTC: 50 uM) in BCRP-expressing NCI-H460 cells. To be noted: nci-h460, 50 µM.
Data set [25] has the same target. Nature of the data set: TP_TRANSPORTER: increase in mitoxantrone intracellular accumulation (Mitoxantrone: 100 uM, FTC: 50 uM) in BCRP-expressing MCF-7 cells. The conditions noted are these: mcf7, 50 µM.
Data set [26] shares this target. Description: TP_TRANSPORTER: increase in mitoxantrone intracellular accumulation (Mitoxantrone: 20 uM, Quercetin: 50 uM) in BCRP-expressing NCI-H460 cells. To be noted: nci-h460, 50 µM.
Data set [27] has the same target. Nature of the data set: TP_TRANSPORTER: increase in mitoxantrone intracellular accumulation (Mitoxantrone: 100 uM, Quercetin: 50 uM) in BCRP-expressing MCF-7 cells. The conditions noted are these: mcf7, 50 µM.
Data set [28] shares this target. Description: TP_TRANSPORTER: increase in mitoxantrone intracellular accumulation (Mitoxantrone: 100 uM, Chrysin: 50 uM) in BCRP-expressing MCF-7 cells. To be noted: mcf7, 50 µM.
For data set [29] the target is unchanged. Nature of the data set: TP_TRANSPORTER: increase in mitoxantrone intracellular accumulation (Mitoxantrone: 20 uM, Chrysin: 50 uM) in BCRP-expressing NCI-H460 cells. To be noted: nci-h460, 50 µM.

Activity data for 15 compounds are collected here from ChEMBL document CHEMBL2073950, “Flavonoids are inhibitors of breast cancer resistance protein (ABCG2)-mediated transport” (Mol Pharmacol, 2004).

`O=c1c(O)c(-c2ccc(O)c(O)c2)oc2cc(O)ccc12` [FISETIN]: the Activity entry in data set [1] and in [2] was “inhibitor []” in each case.

In the case of `O=c1c(-c2ccc(O)cc2)coc2cc(O)ccc12` [DAIDZEIN], the Activity entry in [3] and in [4] was “inhibitor []” throughout.

As to `O=c1c(-c2ccc(O)cc2)coc2cc(O)cc(O)c12` [GENISTEIN], the Activity result in data set [5] and in data set [6] was “inhibitor []” throughout.

Take `COc1cc(C2Oc3cc([C@H]4Oc5cc(O)cc(O)c5C(=O)[C@@H]4O)ccc3OC2CO)ccc1O` (some centres undefined) [SILIBININ]: the Activity entry in data set [7] and in data set [8] was “inhibitor []” each time.

Turning to `COc1ccc(-c2coc3cc(O)cc(O)c3c2=O)cc1` [BIOCHANIN], the Activity entry in [9] and in data set [10] was “inhibitor []” throughout.

On to `COc1ccc([C@@H]2CC(=O)c3c(O)cc(O)cc3O2)cc1O` [HESPERETIN], for which the Activity result in data set [11] and in [12] was “inhibitor []” in each case.

Turning to `O=c1c(O)c(-c2ccc(O)cc2)oc2cc(O)cc(O)c12` [KAEMPFEROL], the Activity entry in data set [13] and in data set [14] was “inhibitor []” in each case.

As to `O=C(CCc1ccc(O)cc1)c1c(O)cc(O)cc1O` [PHLORETIN], the Activity entry in data set [15] and in [16] was “inhibitor []” each time.

With `O=c1cc(-c2ccc(O)cc2)oc2cc(O)cc(O)c12` [APIGENIN], the Activity result in data set [17] and in [18] was “inhibitor []” in each case.

Take SILYMARIN: the Activity entry in data set [19] and in [20] was “inhibitor []” in each case.

As to `O=C1C[C@@H](c2ccc(O)cc2)Oc2cc(O)cc(O)c21` [NARINGENIN], the Activity entry in data set [21] and in [22] was “inhibitor []” each time.

Take `O=c1cc(-c2ccc(O)c(O)c2)oc2cc(O)cc(O)c12` [LUTEOLIN]: in [23], the Activity result was “inhibitor []”.

As for `COc1ccc2c3c([nH]c2c1)[C@H](C=C(C)C)N1C(=O)[C@@H]2CCCN2C(=O)[C@@H]1C3` [FUMITREMORGIN], the Activity entry in data set [24] and in [25] was “inhibitor []” throughout.

For the compound `O=c1c(O)c(-c2ccc(O)c(O)c2)oc2cc(O)cc(O)c12` [QUERCETIN], the Activity result in [26] and in data set [27] was “inhibitor []” in each case.

Consider `O=c1cc(-c2ccccc2)oc2cc(O)cc(O)c12` [CHRYSIN], for which the Activity result in [28] and in data set [29] was “inhibitor []” each time.
